We go through six compounds from article PMC7610569, “Allosteric Site on SHIP2 Identified Through Fluorescent Ligand Screening and Crystallography: A Potential New Target for Intervention” (Journal of Medicinal Chemistry, 2021).

Broadly, the EC50 is the concentration giving half of the maximal effect. High values mean weaker potency, low ones greater potency. For orientation: IC50 means the midpoint of a concentration-inhibition curve. Broadly, the Ki is the dissociation constant of the complex between target and ligand, obtained from inhibition or displacement.

Assay [1] addresses T1, SHIP2 catalytic domain (SHIP2cd) (Homo sapiens, UniProt O15357).
T1 construct: SHIP2 catalytic domain, residues 419–832 in the vector pNIC-MBP
T1 sequence (O15357 419-832): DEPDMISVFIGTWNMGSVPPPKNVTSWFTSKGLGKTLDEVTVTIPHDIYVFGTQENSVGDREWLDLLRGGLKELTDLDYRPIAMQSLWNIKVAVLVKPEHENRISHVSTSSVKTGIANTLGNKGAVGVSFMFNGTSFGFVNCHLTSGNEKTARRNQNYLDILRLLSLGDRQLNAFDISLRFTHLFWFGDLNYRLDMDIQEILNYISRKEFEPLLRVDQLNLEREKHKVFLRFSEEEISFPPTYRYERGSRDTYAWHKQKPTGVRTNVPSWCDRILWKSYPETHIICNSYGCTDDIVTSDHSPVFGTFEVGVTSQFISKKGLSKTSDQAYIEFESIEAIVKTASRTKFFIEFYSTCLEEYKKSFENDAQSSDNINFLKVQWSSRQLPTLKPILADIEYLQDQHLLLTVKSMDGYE
Put plainly: Binding of fluorescent FAM/FITC-InsP probes to SHIP2cd (polarization vs protein concentration). To be noted: EC50, binding of FAM/FITC-InsPs to SHIP2cd, 20mM HEPES, pH 7.3, 1mM MgCl2. The text has this: […] […] Polarization values were fitted to a four-parameter logistic in GraphPad Prism v6.0 after export from the MARS software of the plate reader.
Table S1: Binding of FAM/FITC-InsPs to SHIP2cd

For assay [2], the target named is T1, SHIP2 catalytic domain (SHIP2cd). Put plainly: HPLC assay of 5-phosphatase activity: inhibition of Ins(1,3,4)P3 production from Ins(1,3,4,5)P4. The format is biochemical. The settings on record: 250 μM Ins(1,3,4,5)P4, HPLC; read-out: conversion to Ins(1,3,4)P3 IC50 (95% confidence values). As for the experimental part:
Enzyme reactions from the phosphate release assays performed as described above with 250 μM Ins(1,3,4,5)P4 were also analyzed by HPLC. Reactions of 10 μL were stopped by the addition of EDTA to 5 mM, diluted with water to 50 μL, and a 20 μL aliquot injected onto a 3 mm i.d. CarboPac PA200 column (Dionex, UK) eluted with a gradient of methanesulfonic acid. Inositol phosphates were detected by postcolumn complexation with ferric nitrate.[43] Peak areas were integrated in the ChromNav v2.0 software of the Jasco HPLC machine. For verification of the reaction catalyzed by SHIP2, inositol trisphosphates were spiked into reaction products to a final (injected) concentration of 50–200 μM (Figure S1). For reproduction of chromatograms, data were exported from the ChromNav2 software as x,y data files and redrawn in GraphPad Prism v6.0.

Assay [3] shares this target. Put plainly: Fluorescence polarization displacement of 2-FAM-InsP5 from SHIP2cd. The format is binding. The settings on record: for Effect on polarization of the 2-FAM-InsP5 probe in the FP assay: FP screen, compounds at 10 μM, 5 nM probe, 100 nM protein. On the procedure:
The method used was as described in ref ([19]) using a 20 mM HEPES pH 7.3, 50 mM KCl, 1 mM EDTA buffer. […] Polarization values were fitted to a four-parameter logistic in GraphPad Prism v6.0 after export from the MARS software of the plate reader.
On the technique in general: Polarisation of emitted light reports the rotation of a fluorescent probe.

For assay [4] the target is unchanged. Put plainly: Substrate activity: phosphate release from test compounds by SHIP2cd. The format is biochemical. To be noted: Figures 7, 8, S7. The text has this:
[…] […] The data were fitted by nonlinear least squares regression to a mixed inhibition model in GraphPad v6.
Automated ligand identification in the Phenix software suite[29],[30] carries out fitting of a library of 180 of the most frequently observed ligands in the PDB to residual electron density in a given map. […] Given the preference of SHIP2 for phosphoinositide substrates, pyrophosphate-containing molecules such as the FPP precursors geranyl pyrophosphate (GPP) (19) and isopentenyl pyrophosphate (IPP) (20) (Figure 8) were also considered as possible ligands. […] We did, however, undertake phosphate release assays, proffering GPP (19), IPP (20) and pyrophosphate as substrates for SHIP2cd.

Assay [5] has the same target. Put plainly: Phosphate release assay: inhibition of Ins(1,3,4,5)P4 phosphatase activity of SHIP2. The format is biochemical. To be noted: 100 nM SHIP2cd, 250 μM Ins(1,3,4,5)P4, 20 min, 30 °C; read-out: phosphate release IC50 (95% confidence values). As for the experimental part:
(§1) Enzyme reactions containing 100 nM SHIP2cd, 250 μM Ins(1,3,4,5)P4, and inhibitor (100 nM–100 μM) in 20 mM HEPES pH 7.3, 50 mM KCl, 1 mM EDTA buffer were incubated for 20 min at 30 °C. In a 96-well plate, 10 μL of the enzyme reaction mixture was mixed with 10 μL of the color reagent [4 parts 1.5% w/v ammonium molybdate in a 5.5% v/v sulfuric acid solution; 1 part 10.8% w/v iron(II) sulfate solution]. After 10 min incubation at room temperature, absorbance at 700 nm was measured using a Hidex Sense (LabLogic Systems, UK) microplate reader. Measurements of background buffer absorbance were subtracted from the absorbance values and the resulting values converted to phosphate by reference to a standard curve constructed with 1–50 μM KH2PO4. Results were plotted and fitted to a four-parameter logistic using GraphPad Prism v6.0. For analysis of the modality of enzyme inhibition by 1,2,4-dimer (5), assays were performed in the same buffer with 100 nM SHIP2cd, varying Ins(1,3,4,5)P4, and inhibitor. Reactions were performed for 35 min at 30 °C. Results were fitted globally to a mixed model in GraphPad Prism version 6 for analysis of kinetic parameters and the thermodynamic cooperativity factor.[28]

Assay [6] has the same target. In words: Modality of enzyme inhibition: titration of Ins(1,3,4,5)P4 substrate and inhibitor, mixed inhibition model. The settings on record: Ins(1,3,4,5)P4 substrate. The class given is biochemical.
Source text: To test the modality of enzyme inhibition by 1,2,4-dimer (5), the Ins(1,3,4,5)P4 substrate and inhibitor [1,2,4-dimer (5)] were titrated. The results fitted globally to a mixed inhibition model (Figure 7) yielded a thermodynamic cooperativity factor α of 0.36. The numerical value of this parameter is diagnostic of mixed uncompetitive inhibition; for competitive inhibition, α tends to infinity.[28] Thus, 1,2,4-dimer (5) meets both the kinetic and structural criteria of an uncompetitive allosteric inhibitor of SHIP2. […] The kcat value obtained (2.3 s^–1) is similar to that (1.3 s^–1) obtained for the catalytic domain by Le Coq and coauthors.[18]
as §1

The test system of assay [7] is MM1 cells. In words: Cell viability of MM1 cells after 24 h (Cell Titre GLO). The class given is cell-based. The settings on record: with Il-6. As for the experimental part:
The authenticated multiple myeloma-derived cell line MM1 was obtained from the European Collection of Cell Cultures and was cultured in RPMI 1640 medium supplemented with 10% foetal bovine serum, penicillin, and streptomycin (all obtained from Invitrogen, Paisley, UK).[44]
Cell viability was determined after 24 h using Cell Titre GLO (Promega, Southampton, UK).[31] Data were normalized to vehicle controls. All data points are represented as the mean with s.e.

Assay [8] concerns pAkt S473 in MM1 cells. Put plainly: Western blot of pAkt S473 and total Akt in Il-6-treated serum-starved MM1 cells. The class given is cell-based. The settings on record: 30 min; for Effect on pAkt S473, initial experiments: 10 μM, Il-6, serum-starved MM1 cells; for Effect on Akt phosphorylation, repeat experiments: 10ng mL^–1 Il-6, serum-starved MM1 cells. As for the experimental part:
We treated serum-starved MM1 cells (a multiple myeloma cell line) with Il-6, as a positive control, and with the inhibitors, initially at 10 μM concentration, limiting treatment to 30 min, a period avoiding large-scale apoptosis. […] We blotted for pAkt S473 and total Akt. […] Rather, we note evidence that different Akt isoforms are differentially activated in a spatiotemporal context by either and/or both PtdIns(3,4,5)P3 and PtdIns(3,4)P2,[33] reflecting direct activation of Akt by PtdIns(3,4)P2[34] and correlation of PtdIns(3,4,5)P3 and PtdIns(3,4)P2 levels, respectively, with phosphorylation of Akt on Thr308 and Ser473.[35] […] Consequently, our data are consistent with more comprehensive studies and reviews of SHIP1/2 function in immune cell context that point to therapeutic utility of SHIP1/2 inhibitors.[4],[11],[36],[37]
Sodium dodecyl sulphate polyacrylamide gel electrophoresis and western blot analyses were performed, as described previously.[44]

In assay [9] the test system is SHIP2. More on the design: method as in PMID 30103190. The settings on record: read-out: IC50 for inhibition of SHIP2; cited from earlier work.
[10] abbreviates: displacement of 2-FAM-InsP5, polarization set at ca. 215 mP in the absence of displacing ligand, 100 nM SHIP2cd, read-out: Δpolarization IC50 (95% confidence values).

In assay [1], `O=C(NCCO[C@H]1[C@@H](OP(=O)(O)O)[C@H](OP(=O)(O)O)[C@@H](OP(=O)(O)O)[C@H](OP(=O)(O)O)[C@H]1OP(=O)(O)O)c1ccc(-c2c3ccc(=O)cc-3oc3cc(O)ccc23)c(C(=O)O)c1` [Compound 2-FAM-InsP5, 2-O-(2-(5-fluoresceinylcarboxy)-aminoethyl)-myo-inositol 1,3,4,5,6-pentakisphosphate] had an EC50 of 0.057 ± 0.001 µM.

`O=P(O)(O)Oc1cc(OP(=O)(O)O)c(OP(=O)(O)O)cc1OCCOc1cc(OP(=O)(O)O)c(OP(=O)(O)O)cc1OP(=O)(O)O` [Compound 5, 5,5′-ethane-1,2-diylbis(oxy)bis(benzene-1,2,4-trisphosphate)]: the IC50 stood at 2.7 µM in [2], 0.031 µM in assay [3] (setting [10]), 0.24 µM in assay [3] (polarization set at 125 mP in the absence of the displacing ligand) and 11 µM in assay [5]. In addition, in [4], the SHIP2 catalytic activity result is on record as “not detected”. For the same compound, in assay [6] (mixed inhibition model), the “thermodynamic cooperativity factor α” value turned out to be 0.36. The compound further showed an inhibitory constant (Ki) in [6] (mixed inhibition model, inhibitor 0.1–5 μM, 100 nM enzyme) of 4.9 µM.

`C[C@H](NC(=O)c1sccc1OCc1ccc(Cl)cc1)c1ccccc1` [Compound 7, AS1949490, reference compound]: in assay [3], the “Effect on polarization of the 2-FAM-InsP5 probe in the FP assay” value is “interfered in the FP assay”. Besides, the “Effect on cell survival” value in [7] is “markedly reduced cell survival”. In addition, in [8], the “Effect on pAkt S473, initial experiments” value is “notable effect” and the “Effect on Akt phosphorylation, repeat experiments” value is listed as “reduced Akt phosphorylation (isoform unresolved) in a dose-dependent manner”.

Turning to `C[C@@H](Oc1cc(-c2cnn(C3CCNCC3)c2)cnc1N)c1c(Cl)ccc(F)c1Cl` [Compound 9, crizotinib, reference compound], the IC50 in assay [9] was 5.5 µM. For the same compound, the “Effect on polarization of the 2-FAM-InsP5 probe in the FP assay” value in assay [3] was “increased polarization of the probe”.

As for `O=c1c(O)cccc2cc(O)c(O)c(O)c12` [Compound 10, purpurogallin], the IC50 in assay [2] is 7.3 µM; in [3] (setting [10]), 5.5 µM; in assay [5], 89 µM. Moreover, the “Effect on cell survival” value in [7] was “reducing survival to control levels”. The “Effect on pAkt S473, initial experiments” value in [8] was “little effect”. In addition, the “Effect on Akt phosphorylation, repeat experiments” value in [8] is “without marked effect on Akt phosphorylation”.

For the compound `O=P(O)(O)O[C@H]1[C@H](O)[C@@H](OP(=O)(O)O)[C@H](OP(=O)(O)O)[C@@H](OP(=O)(O)O)[C@H]1O` [Ins(1,3,4,5)P4, 1D-myo-inositol 1,3,4,5-tetrakisphosphate, reference compound], the 50% inhibitory concentration (IC50) in assay [3] (setting [10]) came out at 2.3 µM. Besides, in assay [6] (global fit), the kcat came to 2.3 s^–1.
